From US11344614B2, “Pharmaceutical compositions comprising dengue virus-specific multiple HLA-binding T cell epitopes” (priority 2018, dated 2022)
Peptide text beside a SMILES is read from it.

System: CD8+ T cells
Conditions: healthy seronegative HLA-A2 donor CTLs, peptide pulsed or DENV-2 infected JY cells, FIG. 1; for secretion of granzyme B (cytotoxic activity): supernatant
From the text: FIG. 1. […] (A.) HLA-A2 restricted CTLs directed against the peptides (peptides are represented as first 3 residues of the sequence) were generated using peripheral blood from a seronegative donor. PBMCs containing the epitope specific CTLs were harvested, washed, and cultured with the peptide […] cells overnight in an IFN-gamma ELISpot assay. (B). Identical cultures were set up as in (A) but in 96 well round bottom plates. The next day, supernatant was harvested and used to detect cytolytic activity (B) and the cells were analyzed for the marker of degranulation, CD107a (C.)
Epitope specific CD8^+ T cells (CTLs) were generated as previously described. […] Two hours after pulsing, the non-adherent cells were added back into the plates in a cytokine rich medium of RPMI-1640 supplemented with IL-7 (5 ng/mL), GM-CSF (25 ng/mL), IL-4 (50 ng/mL), and keyhole limpet hemocyanin (5 ug/mL KLH; Sigma-Aldrich) and cultured at 37° C. at 5% CO2. T cells in the culture were restimulated two weeks after the initial stimulation with autologous PBMCs depleted of CD4^+ and CD8^+ T cells and pulsed with synthetic peptides (10 ug/mL) and β2-microglobulin (1.5 ug/mL). Restimulated cells were cultured in RPMI-1640 supplemented with IL-15 (5 ng/mL), GM-CSF (12.5 ng/mL) and IL-2 (10 U/mL) for 7 days. Restimulation was performed a total of three times prior to CTL functional assays. Unless otherwise specified, all cytokines and growth factors were purchased from eBiosciences (San Diego, Calif.).

Structure (SMILES) | degranulation marker CD107a (cytotoxic activity) | secretion of granzyme B (cytotoxic activity)
CC[C@H](C)[C@H](NC(=O)[C@@H](NC(=O)[C@H](C)NC(=O)[C@H](CC(N)=O)NC(=O)[C@@H]1CCCN1C(=O)[C@@H](NC(=O)[C@H](CS)NC(=O)[C@H](CC(C)C)NC(=O)[C@H](CCSC)NC(=O)[C@H](C)N)[C@@H](C)CC)[C@@H](C)CC)C(=O)O [AML] (H-AMLCIPNAII-OH; N-terminus and C-terminus assumed) | upregulation of the degranulation marker CD107a | secretion
CC[C@H](C)[C@H](NC(=O)[C@H](CCSC)NC(=O)[C@@H](NC(=O)[C@H](CC(N)=O)NC(=O)[C@@H]1CCCN1C(=O)[C@@H](NC(=O)[C@H](CS)NC(=O)[C@H](CC(C)C)NC(=O)[C@@H](N)CC(C)C)C(C)C)[C@@H](C)CC)C(=O)O [LLC] (H-LLCVPNIMI-OH; N-terminus and C-terminus assumed) | upregulation of the degranulation marker CD107a | secretion
CC[C@H](C)[C@H](NC(=O)[C@H](Cc1ccccc1)NC(=O)[C@H](C)N)C(=O)N[C@@H](C)C(=O)N[C@@H](Cc1ccccc1)C(=O)N[C@H](C(=O)N[C@@H](CCCNC(=N)N)C(=O)N[C@@H](Cc1ccccc1)C(=O)O)C(C)C [AFI] (H-AFIAFVRF-OH; N-terminus and C-terminus assumed) | upregulation of the degranulation marker CD107a | secretion
CC[C@H](C)[C@H](NC(=O)[C@@H](NC(=O)[C@@H](N)CCSC)[C@@H](C)CC)C(=O)N[C@H](C(=O)N[C@@H](CC(=O)O)C(=O)N[C@@H](CCC(=O)O)C(=O)N[C@@H](C)C(=O)N[C@@H](Cc1c[nH]cn1)C(=O)N[C@@H](Cc1ccccc1)C(=O)O)C(C)C [MII] (H-MIIVDEAHF-OH; N-terminus and C-terminus assumed) | upregulation of the degranulation marker CD107a | secretion
